One test deals with T1, C384S SR-BI (Mus musculus, UniProt Q61009, C384S).
T1 construct: expressed in transfected cells; host or cells: CHO cell line lacking LDL receptors, overexpressing C384S SR-BI
T1 sequence (Q61009 1-509 C384S): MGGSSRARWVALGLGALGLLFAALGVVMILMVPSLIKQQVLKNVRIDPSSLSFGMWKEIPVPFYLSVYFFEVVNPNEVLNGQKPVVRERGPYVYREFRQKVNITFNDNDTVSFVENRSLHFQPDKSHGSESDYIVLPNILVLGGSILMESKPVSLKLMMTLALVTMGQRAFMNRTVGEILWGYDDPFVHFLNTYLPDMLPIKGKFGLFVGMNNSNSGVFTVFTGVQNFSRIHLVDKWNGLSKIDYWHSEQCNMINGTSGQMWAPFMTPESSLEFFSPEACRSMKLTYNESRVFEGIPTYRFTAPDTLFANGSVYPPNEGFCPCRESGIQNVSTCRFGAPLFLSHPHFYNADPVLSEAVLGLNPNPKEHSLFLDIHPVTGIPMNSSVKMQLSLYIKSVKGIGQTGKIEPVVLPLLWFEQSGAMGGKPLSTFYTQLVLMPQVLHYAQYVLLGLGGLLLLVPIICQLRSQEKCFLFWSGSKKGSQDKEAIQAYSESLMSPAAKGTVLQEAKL
Briefly: Radioactive HDL uptake assay (mutant SR-BI). The format is cell-based, murine. The settings on record: Cys384 converted to serine. The text has this: Radioactive HDL Uptake Assay (mutant SR-BI) (SA 9: AID No. 588837)
BLT-1 is known to interact at cysteine 384 of SR-BI (16). […] This assay is used to determine if the compounds work in a similar fashion to BLT-1 and require Cys384 to alter the binding of HDL particles and uptake of the lipid to the mutant SR-BI scavenger receptor, using an alternative means of labeling HDL particles and avoiding any type of fluorescence measurement. To measure this lipid uptake event, HDL particles are labeled with [^3H]cholesteryl ester and added to C384S SR-BI cells. Cells take up HDL lipid via the mutant SR-BI in 2 to 3 hours. After significant uptake of the HDL lipid, the radiolabel can be detected by liquid scintillation counting. The level of radioactivity correlates with the amount of HDL lipid uptake. The uptake of lipid from HDL particles can be inhibited by the compound BLT-1 or when co-treated with an excess of unlabeled HDL. The mSR-BI cells utilized in the assay are a CHO cell line lacking expression of the LDL receptors and overexpressing the mutant scavenger receptor, C384S SR-BI.

The next test concerns the target T2, SR-BI (Mus musculus, UniProt Q61009).
T2 sequence (Q61009 1-509): T1 sequence (Q61009 1-509 C384S) with S384C
Put plainly: DiI-HDL uptake assay with extended washout. The format is cell-based, murine. The arrangement: expressed in transfected cells; host or cells: ldlA[mSR-BI], Chinese hamster ovary (CHO) cells lacking LDL receptor (Krieger Laboratory). Particulars: 4-hour washout period. As to the method: DiI-HDL Uptake Assay with Extended Washout (SA 5: AID No. 588831)
This is another modification of the primary assay where cells are pretreated with compound but no compound is present during a 4-hour washout period or the subsequent 3-hour DiI-HDL treatment period. […] Cells were treated with compound for 3 hours, then were washed four times with PBS, once with lipoprotein-free media (Ham's F12/0.5% fatty acid-free Bovine Serum Albumin [BSA]/25 mM HEPES pH 7.4), and then returned to the incubator with lipoprotein-free media for 4 hours. Media were then removed and cells were washed with PBS before fresh lipoprotein-free media (Ham's F12/0.5% fatty acid-free Bovine Serum Albumin [BSA]/25 mM HEPES pH 7.4) was added with 10 μg protein/ml DiI-HDL. Cells took up the DiI via SR-BI over 3 hours in the absence of compound. After significant uptake of the DiI, the cells became fluorescent. The level of fluorescence correlates with the amount of DiI uptake and can be measured with a standard plate reader. The uptake of lipid (represented by DiI) was inhibited by the compound BLT-1 or with an excess of HDL untreated with DiI.

Positions count from the first letter of the chain named.

From US9884851B2, “Heterocycle-bisamide inhibitors of scavenger receptor BI” (THE BROAD INSTITUTE, INC., priority 2012, dated 2018) come the findings set out here.

For the compound `CCCCCCC1CCCC1=NNC(N)=S` (stereo not shown) [BLT-1, reference compound], the “uptake of HDL in C384S mutant background (in words)” value at C384S SR-BI is listed as “cannot reduce uptake of HDL or efflux of cholesterol”. In addition, on SR-BI (read-out: DiI-HDL uptake IC50 after 4-hour washout period), the IC50 came to 0.6 nM.

For `C[C@H](C(=O)NC1CCCC1)N(C(=O)Cn1nnc(-c2ccc3c(c2)OCO3)n1)C1CCCCC1` [ML279, (R)-2-(2-(5-(Benzo[d][1,3]dioxol-5-yl)-2H-tetrazol-2-yl)-N-cyclohexylacetamido)-N-cyclopentylpropanamide], the “uptake of HDL in C384S mutant background (in words)” value on C384S SR-BI was “can reduce uptake and efflux in the mutant background”. Also, the “activity after extended washout (in words)” value at SR-BI is recorded as “greatly attenuated”.
